Test results taken from PubChem BioAssay (NCI).
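Values below derive from 48-hour exposures of cells grown in 96-well plates, with endpoints linearly interpolated between the two concentrations bracketing the appropriate inhibition level. TGI denotes the concentration required for complete inhibition of growth.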

What was measured:
Test in all cases: NCI-60 cell line screen, 48 h
[1] = system: CCRF-CEM leukemia
[2] = system: PC-3 prostate
[3] = system: A549 NSCLC
[4] = system: KM12 colon
[5] = system: SN12C renal
[6] = system: U251 CNS
[7] = system: OVCAR-5 ovarian
[8] = system: UACC-62 melanoma
[9] = system: MOLT-4 leukemia
[10] = system: A498 renal
[11] = system: MDA-MB-435
[12] = system: SR leukemia
[13] = system: HL-60(TB) leukemia
[14] = system: SK-MEL-2 melanoma
[15] = system: UO-31 renal
[16] = system: OVCAR-8 ovarian
[17] = system: RXF 393 renal
[18] = system: SK-MEL-28 melanoma
[19] = system: UACC-257 melanoma
[20] = system: ACHN renal
[21] = system: SK-OV-3 ovarian
[22] = system: MDA-MB-231 breast
[23] = system: MDA-N
[24] = system: HCC-2998 colon
[25] = system: SF-268 CNS
[26] = system: RPMI-8226 leukemia
[27] = system: OVCAR-4 ovarian
[28] = system: NCI-H460 lung
[29] = system: NCI-H226 lung
[30] = system: CAKI-1 renal
[31] = system: HOP-62 NSCLC
[32] = system: SF-295 CNS
[33] = system: M14 melanoma
[34] = system: SF-539 CNS
[35] = system: BT-549 breast
[36] = system: NCI/ADR-RES ovarian
[37] = system: SNB-75 CNS
[38] = system: OVCAR-3 ovarian
[39] = system: TK-10 renal
[40] = system: SNB-19 CNS
[41] = system: HOP-92 NSCLC
[42] = system: HCT-15 colon
[43] = system: NCI-H23 lung
[44] = system: IGROV1 ovarian
[45] = system: NCI-H522 lung
[46] = system: HCT-116 colon
[47] = system: 786-0 renal
[48] = system: HS 578T breast
[49] = system: MCF7 breast
[50] = system: SW-620 colon
[51] = system: EKVX NSCLC
[52] = system: DU-145 prostate
[53] = system: LOX IMVI melanoma
[54] = system: HT29 colon
[55] = system: MALME-3M melanoma
[56] = system: COLO 205 colon
[57] = system: SK-MEL-5 melanoma
[58] = system: K-562 leukemia
[59] = system: T-47D breast

With COc1ccc(-c2csc(=Nc3ccccc3)n2CCCN(C)C)cc1 the TGI [1] was > 100 µM, the TGI [2] was 30.2 µM and the TGI [3] was 36.3 µM. For the same molecule, the TGI [4] was 29.5 µM, the TGI [5] was > 100 µM and the TGI [6] was > 100 µM. It also gave a TGI [7] of 30.4 µM, a TGI [8] of 34.7 µM and a TGI [9] of 48.9 µM. For the same molecule, the TGI [10] was 49.2 µM, the TGI [11] was 65.3 µM and the TGI [12] was 67.1 µM. The TGI [13] was > 100 µM, the TGI [14] was 37.7 µM and the TGI [15] was 44.9 µM. It also gave a TGI [16] of 75.6 µM, a TGI [17] of 26.6 µM and a TGI [18] of 58.1 µM. It also gave a TGI [19] of 37.5 µM, a TGI [20] of 48.6 µM and a TGI [21] of 39.4 µM. The TGI [22] was > 100 µM, the TGI [23] was > 100 µM and the TGI [24] was 35.3 µM. It also gave a TGI [25] of 56.4 µM, a TGI [26] of 60.8 µM and a TGI [27] of 65.6 µM. The TGI [28] was 78.4 µM, the TGI [29] was 38.1 µM and the TGI [30] was > 100 µM. It also gave a TGI [31] of 28.3 µM, a TGI [32] of 27.6 µM and a TGI [33] of 24.4 µM. It also gave a TGI [34] of 32 µM, a TGI [35] of 37.3 µM and a TGI [36] of 54.3 µM. It also gave a TGI [37] of 19.3 µM, a TGI [38] of 37.5 µM and a TGI [39] of 29.8 µM. The TGI [40] was 48.1 µM, the TGI [41] was > 100 µM and the TGI [42] was > 100 µM. It also gave a TGI [43] of 48.5 µM.
In the case of CC(C)(C)n1c(=O)n2n(c1=O)Cc1cccc3cccc(c13)C2, the TGI [1] is reported as 24.6 µM, the TGI [2] is reported as 30.5 µM and the TGI [3] is reported as > 100 µM. For the same molecule, the TGI [44] was 38.5 µM, the TGI [4] was 34 µM and the TGI [5] was 46.3 µM. The TGI [6] was 33.9 µM, the TGI [7] was 35.1 µM and the TGI [8] was 82.5 µM. For the same molecule, the TGI [45] was 13.6 µM, the TGI [9] was 93.8 µM and the TGI [11] was 62 µM. For the same molecule, the TGI [46] was 33.8 µM, the TGI [12] was 42.3 µM and the TGI [47] was 45.1 µM. The TGI [14] was 38.2 µM, the TGI [15] was 53.1 µM and the TGI [16] was 69.9 µM. The TGI [48] was 61.1 µM, the TGI [49] was 92.4 µM and the TGI [17] was 27.1 µM. For the same molecule, the TGI [50] was 35.9 µM, the TGI [18] was 58.8 µM and the TGI [19] was 89.6 µM. The TGI [20] was 44.7 µM, the TGI [21] was 93.3 µM and the TGI [51] was > 100 µM. The TGI [52] was > 100 µM, the TGI [22] was > 100 µM and the TGI [23] was 50.8 µM. For the same molecule, the TGI [24] was 45.6 µM, the TGI [53] was 73.5 µM and the TGI [54] was 39.7 µM. It also gave a TGI [25] of 49.1 µM, a TGI [55] of 31.7 µM and a TGI [26] of 71.6 µM. It also gave a TGI [27] of 50.3 µM, a TGI [28] of 23.9 µM and a TGI [56] of 72.3 µM. For the same molecule, the TGI [57] was > 100 µM, the TGI [30] was 36.9 µM and the TGI [31] was 33.2 µM. It also gave a TGI [32] of 54.2 µM, a TGI [33] of 34.1 µM and a TGI [34] of 36.4 µM. The TGI [35] was 95.3 µM, the TGI [36] was 37.1 µM and the TGI [37] was 66.4 µM. The TGI [38] was 35.1 µM, the TGI [39] was > 100 µM and the TGI [40] was > 100 µM. The TGI [58] was 35.4 µM, the TGI [41] was 69.2 µM and the TGI [42] was 39.5 µM. The TGI [43] was > 100 µM.
O=c1[nH]nc(Cc2ccc(Cl)cc2)n1/N=C/c1ccco1 was tested, and the TGI [1] was > 100 µM, the TGI [2] was > 100 µM and the TGI [3] was > 100 µM. The TGI [4] was > 100 µM, the TGI [5] was > 100 µM and the TGI [6] was > 100 µM. The TGI [7] was > 100 µM, the TGI [8] was > 100 µM and the TGI [45] was > 100 µM. The TGI [9] was > 100 µM, the TGI [10] was > 100 µM and the TGI [11] was > 100 µM. The TGI [46] was > 100 µM, the TGI [12] was > 100 µM and the TGI [47] was > 100 µM. For the same molecule, the TGI [13] was > 100 µM, the TGI [14] was > 100 µM and the TGI [15] was > 100 µM. For the same molecule, the TGI [16] was > 100 µM, the TGI [49] was > 100 µM and the TGI [17] was 91.7 µM. For the same molecule, the TGI [50] was > 100 µM, the TGI [18] was > 100 µM and the TGI [19] was > 100 µM. For the same molecule, the TGI [20] was > 100 µM, the TGI [21] was > 100 µM and the TGI [51] was > 100 µM. The TGI [52] was > 100 µM, the TGI [22] was > 100 µM and the TGI [23] was > 100 µM. For the same molecule, the TGI [24] was > 100 µM, the TGI [54] was > 100 µM and the TGI [25] was > 100 µM. For the same molecule, the TGI [55] was > 100 µM, the TGI [26] was > 100 µM and the TGI [27] was > 100 µM. For the same molecule, the TGI [28] was > 100 µM, the TGI [56] was > 100 µM and the TGI [29] was > 100 µM. The TGI [30] was > 100 µM, the TGI [31] was > 100 µM and the TGI [32] was > 100 µM. For the same molecule, the TGI [33] was > 100 µM, the TGI [34] was 90.5 µM and the TGI [35] was > 100 µM. The TGI [36] was > 100 µM, the TGI [37] was 49.7 µM and the TGI [38] was > 100 µM. The TGI [40] was 78.4 µM, the TGI [58] was > 100 µM and the TGI [59] was > 100 µM. The TGI [41] was > 100 µM, the TGI [42] was > 100 µM and the TGI [43] was > 100 µM.
CC(=O)N(C)c1ccc(N=CN(C)C)cc1 was tested, and the TGI [1] was > 100 µM, the TGI [2] was > 100 µM and the TGI [3] was > 100 µM. For the same molecule, the TGI [44] was > 100 µM, the TGI [5] was > 100 µM and the TGI [6] was > 100 µM. For the same molecule, the TGI [7] was > 100 µM, the TGI [8] was > 100 µM and the TGI [45] was > 100 µM. The TGI [9] was > 100 µM, the TGI [10] was > 100 µM and the TGI [11] was > 100 µM. The TGI [46] was > 100 µM, the TGI [12] was > 100 µM and the TGI [47] was > 100 µM. The TGI [13] was > 100 µM, the TGI [14] was > 100 µM and the TGI [15] was > 100 µM. The TGI [16] was > 100 µM, the TGI [49] was > 100 µM and the TGI [17] was > 100 µM. For the same molecule, the TGI [18] was > 100 µM, the TGI [19] was > 100 µM and the TGI [20] was > 100 µM. For the same molecule, the TGI [21] was > 100 µM, the TGI [51] was > 100 µM and the TGI [52] was > 100 µM. The TGI [22] was > 100 µM, the TGI [23] was > 100 µM and the TGI [53] was > 100 µM. For the same molecule, the TGI [54] was > 100 µM, the TGI [25] was > 100 µM and the TGI [55] was > 100 µM. The TGI [26] was > 100 µM, the TGI [27] was > 100 µM and the TGI [56] was > 100 µM. For the same molecule, the TGI [57] was > 100 µM, the TGI [29] was > 100 µM and the TGI [30] was > 100 µM. For the same molecule, the TGI [31] was > 100 µM, the TGI [32] was > 100 µM and the TGI [33] was > 100 µM. For the same molecule, the TGI [34] was > 100 µM, the TGI [35] was > 100 µM and the TGI [36] was > 100 µM. The TGI [37] was > 100 µM, the TGI [38] was > 100 µM and the TGI [39] was > 100 µM. For the same molecule, the TGI [40] was > 100 µM, the TGI [58] was > 100 µM and the TGI [59] was > 100 µM. The TGI [41] was > 100 µM, the TGI [42] was > 100 µM and the TGI [43] was > 100 µM.
